Reference: PubChem BioAssay (NCI)
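1) Cells in 96-well plates. 2) Compound, 48 h, 5 concentrations. 3) Linear interpolation between surrounding doses. 4) Unreached endpoint = highest concentration. GI50 is the concentration that inhibits growth by half. TGI: total growth inhibition.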

Key:
Assay in all cases: NCI anticancer screen, dose series, 48 h
HCC-2998 colon = system: HCC-2998 colon
HT29 colon = system: HT29 colon
IGROV1 ovarian = system: IGROV1 ovarian
M14 melanoma = system: M14 melanoma
NCI-H226 lung = system: NCI-H226 lung
NCI/ADR-RES ovarian = system: NCI/ADR-RES ovarian
PC-3 prostate = system: PC-3 prostate
RXF 393 renal = system: RXF 393 renal
SK-OV-3 ovarian = system: SK-OV-3 ovarian
UACC-257 melanoma = system: UACC-257 melanoma

Row | Compound | GI50 (HCC-2998 colon) [nM] | TGI (HCC-2998 colon) [nM] | GI50 (HT29 colon) [nM] | TGI (HT29 colon) [nM] | GI50 (IGROV1 ovarian) [nM] | TGI (IGROV1 ovarian) [nM] | GI50 (M14 melanoma) [nM] | TGI (M14 melanoma) [nM] | GI50 (NCI-H226 lung) [nM] | TGI (NCI-H226 lung) [nM] | GI50 (NCI/ADR-RES ovarian) [nM] | TGI (NCI/ADR-RES ovarian) [nM] | GI50 (PC-3 prostate) [nM] | TGI (PC-3 prostate) [nM] | GI50 (RXF 393 renal) [nM] | TGI (RXF 393 renal) [nM] | GI50 (SK-OV-3 ovarian) [nM] | TGI (SK-OV-3 ovarian) [nM] | GI50 (UACC-257 melanoma) [nM] | TGI (UACC-257 melanoma) [nM]
1 | O=c1c2cccc(F)c2sc2c(N3CCNCC3)nc3ccccc3c12 | 1480 | 3130 | 1130 | 2590 | 1220 | 2550 | 1710 | 3170 | 1650 | 3400 | 1600 | 3210 | 1260 | 2700 | 1310 | 2620 | 1640 | 3410 | 1930 | 3940
2 | COc1ccc(CNC(C)C(=O)O)cc1 (centres undefined) |  |  |  | > 100000 |  | > 100000 |  | > 100000 |  | > 100000 |  | > 100000 |  | > 100000 |  | > 100000 |  | > 100000 |  | > 100000
3 | COC1=C(Br)C(O)C2(C=C1Br)CC(C(=O)NCCCCNC(=O)C1=NOC3(C=C(Br)C(OC)=C(Br)C3O)C1)=NO2 (centres undefined) |  | > 100000 |  | 38800 |  | 46800 |  | 37000 |  | 41200 |  | > 100000 |  | 62800 |  | 69600 |  | > 100000 |  | 52800
4 | Nc1nc2c(nnn2C2OC(CO)C(O)C2O)c(=O)[nH]1 (centres undefined) | 854 | > 27300 | 1660 | 42600 | 2760 | > 100000 | 2070 | > 100000 | 6310 | > 100000 | 1230 | > 100000 | 617 | > 44000 | 1400 | 13600 | 330 | > 23900 | 7290 | > 100000
5 | NC1CCC(Nc2nc(NCc3cc(Cl)ccc3O)c3ncn(C4CCCC4)c3n2)CC1 (centres undefined) | 201 | 603 | 220 | 755 | 204 | 771 | 162 | 330 | 247 | 2780 | 156 | 316 | 160 | 592 | 120 | 277 | 494 | 1650 | 180 | 387
6 | CCOC(=O)c1ccc2c(c1)nc(/C=C/c1ccc(Cl)cc1)n2-c1cc(C(C)(C)C)[nH]n1 | > 100000 | > 100000 | 11300 | > 100000 | 5090 | 33800 | 20900 | > 100000 | 3630 | 27200 | 10100 | > 100000 | 5850 | 47000 | 2210 | 6480 | 4280 | 14800 | 6840 | > 100000
7 | O=C1C(Nc2ccc(Br)cc2)=C(I)C(=O)c2ncccc21 | 3220 | 10400 | 1830 | 9190 | 678 | 1360 | 815 | 1930 | 988 | 2130 | 1140 | 3320 | 888 | 6440 | 909 | 1730 | 5610 | 11600 | 835 | 1950
